From US20240207228A1, “A COMBINATION COMPRISING A SPECIFIC HDAC6 INHIBITOR AND AT LEAST ONE CTLA4 CHECKPOINT INHIBITOR” (ITALFARMACO SPA, priority 2021, published 2024)

Columns and labels:
[1] = test system: female NOD mice; test: Diabetes induction in female NOD mice (glycemia); type: in vivo; details: day 0-21, ITF3756 50 mg/kg os 3x/day, antibodies 500 μg (d0) + 250 μg/mouse ip, diabetes = glucose >250 mg/dL two consecutive days
Experimental: NOD mice spontaneously developed diabetes and they represent a widely accepted spontaneous model of Type 1 diabetes mellitus (Pearson et al., 2016, Journal of Autoimmunity 66, 76-88).
ITF3756 was synthetized by the Medicinal Chemistry Dept. of Italfarmaco SpA. ITF3756, batch 9, as powder was solubilized in DMSO and stored at −20° C.
Antibody treatment was according to Ansari (Ansari et al., 2003, The Journal of experimental medicine 1 98, 63-69)
Glycemia was evaluated in all mice for 3 weeks from day 0 (start treatment) until day 21 (end of study). Blood glucose levels were measured by glucometer One Touch® Verio. Blood samples were drawn from the tail vein by a prick with a needle. A drop of blood was inserted in a test strip and glucometer automatically calculated the glucose level. Results were shown in the display of the instrument. The instrument measures from 20 to 600 mg/dL. Results below 20 or above 600 mg/dL are visualized by the instrument as “below 20” or “above 600”.
Diabetes was defined by blood glucose reading of >250 mg/dL for two consecutive days.
Mice were monitored for 3 weeks; during this time, body weight was measured 7 times.

[2] = test system: mouse colon carcinoma cell line CT26; test: Anti-tumor effect in the CT26 murine model (tumor growth inhibition from tumor nodule volume/weight); type: in vivo; set-up: key to Statistical significance vs Control group on day 10 / Statistical significance vs Control group on day 12 / Statistical significance vs Control group on day 14 / Statistical significance vs Control group on day 17 / Statistical significance vs Control group on day 19 / Statistical significance vs Control group on day 21 / Statistical significance vs Control group on day 24: n.s.: not significant; *: p < 0.05; **: p < 0.01; details: for Statistical significance vs Control group on day 10 / Statistical significance vs Control group on day 12 / Statistical significance vs Control group on day 14 / Statistical significance vs Control group on day 17 / Statistical significance vs Control group on day 19 / Statistical significance vs Control group on day 21 / Statistical significance vs Control group on day 24: CT26 tumor growth
Experimental: The anti-tumor efficacy of ITF3756, administered in combination with anti-CTLA4 antibody, has been determined using a murine model based on the use of the mouse colon carcinoma cell line CT26. In this model, the CT26 cells are implanted subcutaneously to syngeneic mice and the efficacy is determined as tumor growth inhibition on the basis of the volume of the tumor nodule.
ITF3756 was synthetized by the Medicinal Chemistry Dept. of Italfarmaco SpA. ITF3756, batch 5, as powder was solubilized in DMSO and stored at −20° C. On each day of administration, the solution was diluted with H2O/PEG 400 1:1 to obtain a final solution of H2O/PEG 400 1:1 in DMSO 0.5% at 2.5 and 5.0 mg/mL.
The solutions were administered orally by using gavage needles for mice, in a volume of 200 μL (final doses 25 and 50 mg/Kg).
ITF3756 administration started when the tumor nodules were palpable (around day 10 from cells inoculation).
Syrian hamster IgG Mab anti-mouse CTLA4 was purchased from BioXell (cat. BE0131, clone 9H10), diluted with PBS at 1, 0.3 and 0.1 mg/mL final concentration and stored at +4° C. Each mouse was treated with 200 μL of the respective solution (final doses 10.0, 3.0 and 1.0 mg/Kg).
Anti-CTLA4 Mab administration started when the tumor nodules were palpable (around day 10 from cells inoculation). Anti-CTLA4 was administered intraperitoneally (ip) once a day on alternate days for a total of 4 treatments, followed by 7 days of wash-out, as reported in table 1. This treatment cycle continued up to the end of the study.
Female 6 weeks old BALB/c mice were purchased from Charles River Italia and maintained with food and water ad libitum, under light-dark cycle of 12 hours.
After 5 days of acclimatization, the mice were submitted to tumor cells injection.
CT26 (murine BALB/c colon carcinoma, CT26.WT ATCC CRL-2638) cells were grown in RPMI 1640 cell culture medium+10% fetal calf serum (FCS).
The cells were detached, during the exponential phase, with trypsin, washed with the culture medium without FCS and suspended at 5×10^6 cells/mL final concentration.
The cells (1×10^6 cells/mouse) were injected s.c. in the inguinal region of the right flank of the mice in a volume of 200 μL.
When the tumor nodule was palpable in at least 80% of the animals, the mice were randomized in the following experimental groups and drugs administration was started.
Body weight was measured on alternate days, starting from the first day of drug administration.
The volume of subcutaneous tumor nodules was determined on alternate days, according to the following formula (Papagiannoros A. et al. in vivo 20:129-136, 2006):
where D=major diameter of the nodule and d=minor diameter of the nodule.
The weight of the tumor nodule was determined by the tumor volume considering a tumor density of 1.05 g/mL (Jensen M. M. et al. BMC Medical Imaging 8(16), 2008).
The animals were euthanized when the tumor weight was equal to the 10% of body weight or the tumor nodules were ulcerated (humane end-points).
The statistical analysis of the drugs effect was carried out by 2-way ANOVA with Dunnett's multiple comparisons test using GraphPad Prism 8 software.

[3] = test system: PD-L1; test: Cytokine-induced PD-L1 expression in human monocytes stimulated in vitro; type: cell-based
[4] = test system: 4T1 triple negative breast cancer; test: 4T1 breast cancer model, previous experiments with single agents; type: in vivo, mouse; details: each drug as single agent
Experimental: […] mice challenged with syngeneic tumor cell line 4T1 triple negative breast cancer are used.
4T1 tumor model is considered a poorly immunogenic tumor (Demaria et al., Clin. Cancer Res. 11, 728-734, 2005).
ITF3756 is used at the same dosage used for the treatment of CT26 colon cancer, namely 50 mg/kg (mpk) TID as single agent and in combination with anti CTLA-4 antibody. The latter is administered at 3 mpk 3 times a week on alternate days.
Tumor growth is induced after subcutaneous injection of cell line and mice are monitored for at least three weeks post-injection.

[5] = Mean level in 24 hours after the efficacious schedule in the mouse; type: in vivo; details: administration schedule that had shown efficacy, used as target for projected doses
Experimental: The human doses for ITF3756 were predicted using a physiologically based pharmacokinetic (PBPK) model, through the use of the software GastroPlus™ (Simulation Plus, Lancaster, CA). The target Caverage for projected doses was 200 ng/mL, mean level in 24 hours found after the administration schedule that had shown efficacy in the mouse.

[6] = test system: PD-L1; test: PD-L1 expression in mouse immune cells in vivo; details: ITF3756 50 mg/Kg three times a day

SMILES: O=C(NO)c1ccc(Cn2nnnc2-c2cccs2)cc1 [ITF3756, N-hydroxy-4-((5-(thiophen-2-yl)-1H-tetrazol-1-yl)methyl)benzamide]
- induction of diabetes [1]: did not accelerates the induction of autoimmune diabetes
- Statistical significance vs Control group on day 10 ([2]; ITF3756 25 mg/Kg): n.s.
- Statistical significance vs Control group on day 12 ([2]; ITF3756 25 mg/Kg): n.s.
- Statistical significance vs Control group on day 14 ([2]; ITF3756 25 mg/Kg): n.s.
- Statistical significance vs Control group on day 17 ([2]; ITF3756 25 mg/Kg): n.s.
- Statistical significance vs Control group on day 19 ([2]; ITF3756 25 mg/Kg): n.s.
- Statistical significance vs Control group on day 21 ([2]; ITF3756 25 mg/Kg): n.s.
- Statistical significance vs Control group on day 24 ([2]; ITF3756 25 mg/Kg): n.s.
- Statistical significance vs Control group on day 10 ([2]; ITF3756 50 mg/Kg): n.s.
- Statistical significance vs Control group on day 12 ([2]; ITF3756 50 mg/Kg): n.s.
- Statistical significance vs Control group on day 14 ([2]; ITF3756 50 mg/Kg): n.s.
- Statistical significance vs Control group on day 17 ([2]; ITF3756 50 mg/Kg): n.s.
- Statistical significance vs Control group on day 19 ([2]; ITF3756 50 mg/Kg): n.s.
- Statistical significance vs Control group on day 21 ([2]; ITF3756 50 mg/Kg): * (p < 0.05)
- Statistical significance vs Control group on day 24 ([2]; ITF3756 50 mg/Kg): n.s.
- Statistical significance vs Control group on day 10 ([2]; ITF3756 50 mg/Kg x3): n.s.
- Statistical significance vs Control group on day 12 ([2]; ITF3756 50 mg/Kg x3): n.s.
- Statistical significance vs Control group on day 14 ([2]; ITF3756 50 mg/Kg x3): n.s.
- Statistical significance vs Control group on day 17 ([2]; ITF3756 50 mg/Kg x3): n.s.
- Statistical significance vs Control group on day 19 ([2]; ITF3756 50 mg/Kg x3): * (p < 0.05)
- Statistical significance vs Control group on day 21 ([2]; ITF3756 50 mg/Kg x3): ** (p < 0.01)
- Statistical significance vs Control group on day 24 ([2]; ITF3756 50 mg/Kg x3): ** (p < 0.01)
- inhibition of tumor growth ([2]; ITF3756 25 mg/Kg orally once a day, day 24): 7%
- tumor weight ([2]; ITF3756 25 mg/Kg orally once a day, day 24, control 1.89 g): 1.76 g
- inhibition of tumor growth ([2]; ITF3756 25 mg/Kg orally once a day, entire experimental period): did not show a significant inhibition of tumor growth
- inhibition of tumor growth ([2]; ITF3756 50 mg/Kg orally 3 times a day, day 24): 30%
- tumor weight ([2]; ITF3756 50 mg/Kg orally 3 times a day, day 24, control 1.89 g): 1.32 g
- inhibition of tumor growth ([2]; ITF3756 50 mg/Kg orally once a day, day 21): 34%
- tumor weight ([2]; ITF3756 50 mg/Kg orally once a day, day 21, control 1.34 g): 0.88 g
- inhibition of tumor growth ([2]; ITF3756 50 mg/Kg orally once a day, day 24): 9%
- tumor weight ([2]; ITF3756 50 mg/Kg orally once a day, day 24, control 1.89 g): 1.72 g
- cytokine-induced expression of PD-L1 [3]: decreases
- average reduction of tumor growth [4]: approximately 40%
- Caverage, mean level in 24 hours [5]: 200 ng/mL
- PD-L1 expression [6]: decreased
